Assay results taken from patent USH1923H, “Herbicidal (oxaalkyl) phenyl-substituted heterocycles” (FMC Corporation, priority 1998, dated 2000).

What was measured:
[1] = test system: soybean; assay: preemergence herbicidal activity on soybean; format: in vivo, Glycine max var. Winchester; settings: Glycine max, pre-emergence, 0.3 Kg/Ha, after 12-17 days, read-out: PREEMERGENCE HERBICIDAL ACTIVITY (% CONTROL) SOY
Description: (§1) The (oxaalkyl)phenyl-substituted heterocycles of this invention were tested for pre- and postemergence herbicidal activity using a variety of crops and weeds. The test plants included soybean (Glycine max var. Winchester),field corn (Zea mays var. Pioneer 3732), wheat (Triticum aestivum var. Lew), morningglory (Ipomea lacunosa or Ipomea hederacea), […] (Abutilon theophrasti), green foxtail (Setaria viridis), Johnsongrass (Sorghum halepense), blackgrass (Aloepecurus myosuroides), common chickweed (Stellaria media), and common cocklebur (Xanthium strumarium L.).
(§2) For preemergence testing, two disposable fiber flats (8 cm×15 cm×25 cm) for each rate of application of each candidate herbicide were filled to an approximate depth of 6.5 cm with steam-sterilized sandy loam soil. The soil was leveled and impressed with a template to provide five evenly spaced furrows 13 cm long and 0.5 cm deep in each flat. Seeds of soybean, wheat, corn, green foxtail, and johnsongrass were planted in the furrows of the first flat, and seeds of velvetleaf, morningglory, common chickweed, cocklebur, and blackgrass were planted in the furrows of the second flat. The five-row template was employed to firmly press the seeds into place. A topping soil of equal portions of sand and sandy loam soil was placed uniformly on top of each flat to a depth of approximately 0.5 cm. Flats for postemergence testing were prepared in the same manner except that they were planted 9-14 days prior to the preemergence flats and were placed in a greenhouse and watered, thus allowing the seeds to germinate and the foliage to develop.
(§3) In both pre- and postemergence tests, a stock solution of the candidate herbicide was prepared by dissolving 0.27 g of the compound in 20 mL of water/acetone (50/50) containing 0.5% v/v sorbitan monolaurate. For an application rate of 3000 g/ha of herbicide a 10 mL portion of the stock solution was diluted with water/acetone (50/50) to 45 mL.
(§4) The preemergence flats were initially subjected to a light water spray. The four flats were placed two by two along a conveyor belt (i.e., the two preemergence followed by the two postemergence flats). The conveyor belt fed under a spray nozzle mounted about ten inches above the postemergent foliage. The preemergent flats were elevated on the belt so that the soil surface was at the same level below the spray nozzle as the foliage canopy of the postemergent plants. The spray of herbicidal solution was commenced and once stabilized, the flats were passed under the spray at a speed to receive a coverage equivalent of 1000 L/ha. At this coverage the application rates are those shown in the above table for the individual herbicidal solutions. The preemergence flats were watered immediately thereafter, placed in the greenhouse and watered regularly at the soil surface. The postemergence flats were immediately placed in the green-house and not watered until 24 hours after treatment with the test solution. Thereafter they were regularly watered at ground level. After 12-17 days the plants were examined and the phytotoxicity data were recorded.
(§5) Phytotoxicity data were taken as percent control. Percent control was by a method similar to the 0 to 1 00 rating system disclosed in "Research Methods in Weed Science," 2nd ed., B. Truelove, Ed.; Southern Weed Science Society; Auburn University, Auburn, Ala., 1977.

[2] = test system: wheat; assay: preemergence herbicidal activity on wheat; format: in vivo, Triticum aestivum var. Lew; settings: Triticum aestivum, pre-emergence, 0.3 Kg/Ha, after 12-17 days, read-out: PREEMERGENCE HERBICIDAL ACTIVITY (% CONTROL) WHT
Description: as §1, §2, §3, §4, §5

[3] = test system: corn; assay: preemergence herbicidal activity on corn; format: in vivo, Zea mays var. Pioneer 3732; settings: Zea mays, pre-emergence, 0.3 Kg/Ha, after 12-17 days, read-out: PREEMERGENCE HERBICIDAL ACTIVITY (% CONTROL) CRN
Description: as §1, §2, §3, §4, §5

[4] = test system: velvetleaf; assay: preemergence herbicidal activity on velvetleaf; format: in vivo; settings: Abutilon theophrasti, pre-emergence, 0.3 Kg/Ha, after 12-17 days, read-out: PREEMERGENCE HERBICIDAL ACTIVITY (% CONTROL) ABUTH
Description: as §1, §2, §3, §4, §5

[5] = test system: morningglory; assay: preemergence herbicidal activity on morningglory; format: in vivo, Ipomea lacunosa or Ipomea hederacea; settings: Ipomoea, pre-emergence, 0.3 Kg/Ha, after 12-17 days, read-out: PREEMERGENCE HERBICIDAL ACTIVITY (% CONTROL) IPOSS
Description: as §1, §2, §3, §4, §5

[6] = test system: chickweed; assay: preemergence herbicidal activity on chickweed; format: in vivo; settings: Stellaria media, pre-emergence, 0.3 Kg/Ha, after 12-17 days, read-out: PREEMERGENCE HERBICIDAL ACTIVITY (% CONTROL) STEME
Description: as §1, §2, §3, §4, §5

[7] = test system: cocklebur; assay: preemergence herbicidal activity on cocklebur; format: in vivo, Xanthium strumarium L.; settings: Xanthium strumarium, pre-emergence, 0.3 Kg/Ha, after 12-17 days, read-out: PREEMERGENCE HERBICIDAL ACTIVITY (% CONTROL) XANPE
Description: as §1, §2, §3, §4, §5

[8] = test system: blackgrass; assay: preemergence herbicidal activity on blackgrass; format: in vivo, Aloepecurus myosuroides; settings: Alopecurus myosuroides, pre-emergence, 0.3 Kg/Ha, after 12-17 days, read-out: PREEMERGENCE HERBICIDAL ACTIVITY (% CONTROL) ALOMY
Description: as §1, §2, §3, §4, §5

[9] = test system: green foxtail; assay: preemergence herbicidal activity on green foxtail; format: in vivo; settings: Setaria viridis, pre-emergence, 0.3 Kg/Ha, after 12-17 days, read-out: PREEMERGENCE HERBICIDAL ACTIVITY (% CONTROL) SETVI
Description: as §1, §2, §3, §4, §5

[10] = test system: johnsongrass; assay: preemergence herbicidal activity on johnsongrass; format: in vivo; settings: Sorghum halepense, pre-emergence, 0.3 Kg/Ha, after 12-17 days, read-out: PREEMERGENCE HERBICIDAL ACTIVITY (% CONTROL) SORHA
Description: as §1, §2, §3, §4, §5

[11] = test system: soybean; assay: postemergence herbicidal activity on soybean; format: in vivo, Glycine max var. Winchester; settings: Glycine max, post-emergence, 0.3 Kg/Ha, after 12-17 days, read-out: POSTEMERGENCE HERBICIDAL ACTIVITY (% CONTROL) SOY
Description: as §1, §2, §3, §4, §5

[12] = test system: wheat; assay: postemergence herbicidal activity on wheat; format: in vivo, Triticum aestivum var. Lew; settings: Triticum aestivum, post-emergence, 0.3 Kg/Ha, after 12-17 days, read-out: POSTEMERGENCE HERBICIDAL ACTIVITY (% CONTROL) WHT
Description: as §1, §2, §3, §4, §5

[13] = test system: corn; assay: postemergence herbicidal activity on corn; format: in vivo, Zea mays var. Pioneer 3732; settings: Zea mays, post-emergence, 0.3 Kg/Ha, after 12-17 days, read-out: POSTEMERGENCE HERBICIDAL ACTIVITY (% CONTROL) CRN
Description: as §1, §2, §3, §4, §5

[14] = test system: velvetleaf; assay: postemergence herbicidal activity on velvetleaf; format: in vivo; settings: Abutilon theophrasti, post-emergence, 0.3 Kg/Ha, after 12-17 days, read-out: POSTEMERGENCE HERBICIDAL ACTIVITY (% CONTROL) ABUTH
Description: as §1, §2, §3, §4, §5

[15] = test system: morningglory; assay: postemergence herbicidal activity on morningglory; format: in vivo, Ipomea lacunosa or Ipomea hederacea; settings: Ipomoea, post-emergence, 0.3 Kg/Ha, after 12-17 days, read-out: POSTEMERGENCE HERBICIDAL ACTIVITY (% CONTROL) IPOSS
Description: as §1, §2, §3, §4, §5

[16] = test system: chickweed; assay: postemergence herbicidal activity on chickweed; format: in vivo; settings: Stellaria media, post-emergence, 0.3 Kg/Ha, after 12-17 days, read-out: POSTEMERGENCE HERBICIDAL ACTIVITY (% CONTROL) STEME
Description: as §1, §2, §3, §4, §5

[17] = test system: cocklebur; assay: postemergence herbicidal activity on cocklebur; format: in vivo, Xanthium strumarium L.; settings: Xanthium strumarium, post-emergence, 0.3 Kg/Ha, after 12-17 days, read-out: POSTEMERGENCE HERBICIDAL ACTIVITY (% CONTROL) XANPE
Description: as §1, §2, §3, §4, §5

[18] = test system: blackgrass; assay: postemergence herbicidal activity on blackgrass; format: in vivo, Aloepecurus myosuroides; settings: Alopecurus myosuroides, post-emergence, 0.3 Kg/Ha, after 12-17 days, read-out: POSTEMERGENCE HERBICIDAL ACTIVITY (% CONTROL) ALOMY
Description: as §1, §2, §3, §4, §5

[19] = test system: green foxtail; assay: postemergence herbicidal activity on green foxtail; format: in vivo; settings: Setaria viridis, post-emergence, 0.3 Kg/Ha, after 12-17 days, read-out: POSTEMERGENCE HERBICIDAL ACTIVITY (% CONTROL) SETVI
Description: as §1, §2, §3, §4, §5

[20] = test system: johnsongrass; assay: postemergence herbicidal activity on johnsongrass; format: in vivo; settings: Sorghum halepense, post-emergence, 0.3 Kg/Ha, after 12-17 days, read-out: POSTEMERGENCE HERBICIDAL ACTIVITY (% CONTROL) SORHA
Description: as §1, §2, §3, §4, §5

Measured: activity at 300 g/ha

Cc1nn(-c2cc(CC(Cl)C(C)(C)O)c(Cl)cc2F)c(=O)n1C(F)F (centres unmarked) [Compound 2]
60%: [1] | [7] | [12]
70%: [2] | [8] | [16] | [18]
55%: [17]
90%: [6] | [10]
80%: [3] | [11] | [13] | [19] | [20]
100%: all other assays above
